From EP4745117A1, “NOVEL INDENONE DERIVATIVE AND USE THEREOF” (Amyloid Solution Inc., priority 2023, dated 2025) come the findings set out here.

Like-named read-outs stand apart in the source and are kept apart here.

The target in experiment [1] is Tau-RD3 (Tau repeat domain 3) (Homo sapiens, UniProt P10636). Briefly: Tau disaggregation test by Thioflavin-T analysis. Format: biochemical. As for the experimental part:
(§1) Each compound was dissolved in DMSO to a concentration of 10 mM. Then, the compounds were diluted with 6 % DMSO (in DW) for use.
(§2) Amyloid-beta and tau solutions were prepared by dissolving Aβ1-42 or Tau-RD3 (Tau repeat domain 3) monomers in DMSO to a concentration of 10 mM. Then, the solutions were diluted to 100 µM with DW and stored on ice.
(§3) Meanwhile, Thioflavin-T was dissolved in 50 mM glycine buffer (pH 8.5) to a concentration of 5 mM. Then, the solution was diluted to 5 µM with 50 mM glycine buffer (pH 8.5) and stored in the dark, protected from light.
(§4) The amyloid-beta and tau solutions prepared in Example 1.1 were each placed in 1.5 mL microcentrifuge tubes to a concentration of 50 µM or 35 µM, respectively, and then reacted at 37 °C for 24 hours.
(§5) To each 1.5 mL microcentrifuge tube in which the amyloid-beta and tau aggregation was complete, the compounds were added at concentrations ranging from 500 µM down to 0 µM by serial dilution, and then further reacted at 37 °C for 48 hours.
(§6) 25 µL of each completed reaction solution was added to each well of a 96-well fluorescence analysis plate, and 75 µL of the Thioflavin-T solution was added to each well. After reacting for 5 minutes at room temperature in the dark, the fluorescence value was measured at 450 nm (excitation) and 485 nm (emission) using a multi-mode microplate reader.
(§7) The fluorescence value of the group (control group) treated with only amyloid-beta or tau and aggregated for 72 hours was designated as 100 %. The fluorescence values measured after treating the amyloid-beta and tau aggregates (formed by reacting for 24 hours) with each compound by concentration and reacting for an additional 48 hours were converted to relative values.

A further experiment has as its target T1, Aβ1-42 (Homo sapiens, UniProt P05067).
T1 construct: dissolving Aβ1-42 or Tau-RD3 (Tau repeat domain 3) monomers in DMSO
The experiment can be described thus: Amyloid-beta disaggregation test by Thioflavin-T analysis. It counts as biochemical. As for the experimental part:
as §1, §2, §3, §4, §5, §6, §7

[2] abbreviates: Tau-RD3 35 µM aggregated 24 hours, then compound 0 - 500 µM for 48 hours at 37 °C; concentration disaggregating 50 % of aggregates vs control; read-out: EC50 (µM) Tau.
[3] abbreviates: Aβ1-42 50 µM aggregated 24 hours, then compound 0 - 500 µM for 48 hours at 37 °C; concentration disaggregating 50 % of aggregates vs control; read-out: EC50 (µM) Aβ.
Setting [4] is: statement in words summarising the Thioflavin-T results.

T1 sequence (P05067 672-713 limits assumed): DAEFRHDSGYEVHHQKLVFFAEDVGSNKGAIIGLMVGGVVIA
Sequence of Tau-RD3 (Tau repeat domain 3) (P10636 623-653 limits assumed): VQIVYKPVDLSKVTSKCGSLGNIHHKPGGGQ

For `O=C1C(c2ccccc2)=C(c2ccccc2)c2ccccc21` [Compound 1, 2,3-diphenylinden-1-one], the 50% effective concentration (EC50) in experiment [1] (setting [2]) is over 250 µM; on Aβ1-42 (setting [3]) it was under 20 µM.

For `COc1ccc2c(c1)C(=O)C(c1ccccc1)=C2c1ccccc1` [Compound 2, 6-methoxy-2,3-diphenyl-1H-inden-1-one], the 50% effective concentration (EC50) in experiment [1] (setting [2]) is over 250 µM; at Aβ1-42 (setting [3]), under 20 µM.

As to `CCCOc1ccc2c(c1)C(=O)C(c1ccccc1)=C2c1ccccc1` [Compound 3, 2,3-diphenyl-6-propoxy-1H-inden-1-one], the EC50 in experiment [1] (setting [2]) is over 250 µM; on Aβ1-42 (setting [3]), under 20 µM.

As to `CC(C)Oc1ccc2c(c1)C(=O)C(c1ccccc1)=C2c1ccccc1` [Compound 4, isopropoxy-2,3-diphenyl-1H-inden-1-one], the half-maximal effective concentration (EC50) is over 250 µM in experiment [1] (read-out: EC50 (µM) Tau; Tau-RD3 35 µM aggregated 24 hours, then compound 0 - 500 µM for 48 hours at 37 °C; concentration disaggregating 50 % of aggregates vs control) and 20 to 100 µM at Aβ1-42 (read-out: EC50 (µM) Aβ; Aβ1-42 50 µM aggregated 24 hours, then compound 0 - 500 µM for 48 hours at 37 °C; concentration disaggregating 50 % of aggregates vs control).

For `Cc1ccccc1C1=C(c2ccccc2)C(=O)c2ccccc21` [Compound 5, 2-phenyl-3-(o-tolyl)-1H-inden-1-one], the results for the EC50 (in experiment [1] (setting [2]); at Aβ1-42 (setting [3])) were over 250 µM and 20 to 100 µM, respectively.

Turning to `O=C1C(c2ccccc2)=C(Br)c2ccccc21` [Compound 5-4, 3-bromo-2-phenyl-1H-inden-1-one], the EC50 (in experiment [1] (setting [2]); at Aβ1-42 (setting [3])) was under 20 µM each time. For the same compound, the “disaggregation effect for tau protein aggregates” value in experiment [1] (setting [4]) is “remarkably excellent disaggregation effect”. Also, the “disaggregation effect for amyloid-beta protein aggregates” value on Aβ1-42 (setting [4]) was “remarkably excellent disaggregation effect”.

Turning to `Cc1ccccc1C1=C(c2ccccc2)c2ccccc2C1=O` [Compound 6, 3-phenyl-2-(o-tolyl)-1H-inden-1-one], the results for the half-maximal effective concentration (EC50) (in experiment [1] (setting [2]); at Aβ1-42 (setting [3])) were over 250 µM and 20 to 100 µM, respectively.

As to `O=C1C(Br)=C(c2ccccc2)c2ccccc21` [Compound 6-2, 2-bromo-3-phenyl-1H-inden-1-one], the figures for the concentration giving a half-maximal response (EC50) (in experiment [1] (setting [2]); on Aβ1-42 (setting [3])) were under 20 µM and 20 to 100 µM, respectively.

`O=C1C(c2cccnc2)=C(c2ccccc2)c2ccccc21` [Compound 7, 3-phenyl-2-(pyridin-3-yl)-1H-inden-1-one]: the figures for the concentration for a half-maximal effect (EC50) (in experiment [1] (setting [2]); on Aβ1-42 (setting [3])) were over 250 µM and under 20 µM, respectively.

With `O=C1C(N2CCOCC2)=C(c2ccccc2)c2ccccc21` [Compound 8, 2-morpholino-3-phenyl-1H-inden-1-one], the EC50 in experiment [1] (setting [2]) lay in the range of 20 to 100 µM; at Aβ1-42 (setting [3]), 100 to 250 µM.

On to `O=C1C(c2ccccc2)=C(c2cccnc2)c2ccccc21` [Compound 9, 2-phenyl-3-(pyridin-3-yl)-1H-inden-1-one], for which the EC50 (in experiment [1] (setting [2]); on Aβ1-42 (setting [3])) was 20 to 100 µM each time.

On to `O=C1C(c2ccccc2)=C(C2CCCCC2)c2ccccc21` [Compound 10, 3-cyclohexyl-2-phenyl-1H-inden-1-one], for which the concentration giving a half-maximal response (EC50) (in experiment [1] (setting [2]); at Aβ1-42 (setting [3])) was over 250 µM in each case.

Regarding `O=C1C(C2CCCCC2)=C(c2ccccc2)c2ccccc21` [Compound 11, 2-cyclohexyl-3-phenyl-1H-inden-1-one], the figures for the EC50 (in experiment [1] (setting [2]); on Aβ1-42 (setting [3])) were over 250 µM and 100 to 250 µM, respectively.

For the compound `O=C1C(c2ccccc2)=C(c2ccccc2)c2ccc(N3CCOCC3)cc21` [Compound 12, 6-morpholino-2,3-diphenyl-1H-inden-1-one], the half-maximal effective concentration (EC50) was over 250 µM in experiment [1] (setting [2]) and under 20 µM at Aβ1-42 (setting [3]).

Turning to `O=C1C(c2ccccc2)=C(c2ccccc2)c2ccc(Cl)cc21` [Compound 12-3, 6-chloro-2,3-diphenyl-1H-inden-1-one], the figures for the half-maximal effective concentration (EC50) (in experiment [1] (setting [2]); on Aβ1-42 (setting [3])) were over 250 µM and 100 to 250 µM, respectively.

For `O=C1C(c2ccccc2)=C(c2ccc(N3CCOCC3)cc2)c2ccccc21` [Compound 14, 3-(4-morpholinophenyl)-2-phenyl-1H-inden-1-one], the 50% effective concentration (EC50) is over 250 µM in experiment [1] (setting [2]) and under 20 µM at Aβ1-42 (setting [3]).

Consider `O=C1C(c2ccccc2)=C(c2cccc(N3CCOCC3)c2)c2ccccc21` [Compound 15, 3-(3-morpholinophenyl)-2-phenyl-1H-inden-1-one], for which the EC50 in experiment [1] (setting [2]) is over 250 µM; on Aβ1-42 (setting [3]), 20 to 100 µM.

On to `O=C1C(c2ccccc2)=C(c2ccc(CN3CCOCC3)cc2)c2ccccc21` [Compound 16, 3-(4-(morpholinomethyl)phenyl)-2-phenyl-1H-inden-1-one], for which the EC50 in experiment [1] (setting [2]) was over 250 µM; at Aβ1-42 (setting [3]), 20 to 100 µM.

With `O=C1C(c2ccc(N3CCOCC3)cc2)=C(c2ccccc2)c2ccccc21` [Compound 17, 2-(4-morpholinophenyl)-3-phenyl-1H-inden-1-one], the half-maximal effective concentration (EC50) in experiment [1] (setting [2]) is over 250 µM; on Aβ1-42 (setting [3]), under 20 µM.

With `O=C1C(c2cccc(N3CCOCC3)c2)=C(c2ccccc2)c2ccccc21` [Compound 18, 2-(3-morpholinophenyl)-3-phenyl-1H-inden-1-one], the values for the EC50 (in experiment [1] (setting [2]); on Aβ1-42 (setting [3])) were over 250 µM and under 20 µM, respectively.

`Cc1ncsc1C1=C(c2cccnc2)C(=O)c2ccccc21` [Compound 19, 3-(4-methylthiazol-5-yl)-2-(pyridin-3-yl)-1H-inden-1-one]: the half-maximal effective concentration (EC50) was 100 to 250 µM in experiment [1] (setting [2]) and over 250 µM at Aβ1-42 (setting [3]).

With `Cc1ncsc1C1=C(c2cccnc2)C(=O)c2cc(NCCCc3ccccc3)ccc21` [Compound 20, 3-(4-methylthiazol-5-yl)-6-((3-phenylpropyl)amino)-2-(pyridin-3-yl)-1H-inden-1-one], the EC50 (in experiment [1] (setting [2]); on Aβ1-42 (setting [3])) was under 20 µM throughout. In addition, in experiment [1] (setting [4]), the “disaggregation effect for tau protein aggregates” value is on record as “remarkably excellent disaggregation effect”. Also, on Aβ1-42 (setting [4]), the “disaggregation effect for amyloid-beta protein aggregates” value was “remarkably excellent disaggregation effect”.

`Cc1ccncc1C1=C(c2scnc2C)c2ccc(OCCCc3ccccc3)cc2C1=O` [Compound 21, 2-(4-methylpyridin-3-yl)-3-(4-methylthiazol-5-yl)-6-(3-phenylpropoxy)-1H-inden-1-one]: the concentration giving a half-maximal response (EC50) (in experiment [1] (setting [2]); at Aβ1-42 (setting [3])) was under 20 µM throughout. For the same compound, the “disaggregation effect for tau protein aggregates” value in experiment [1] (setting [4]) is on record as “remarkably excellent disaggregation effect”. Further, the “disaggregation effect for amyloid-beta protein aggregates” value on Aβ1-42 (setting [4]) is given as “remarkably excellent disaggregation effect”.

On to `COc1ccc2c(c1)C(=O)C(c1cnccc1C)=C2c1scnc1C` [Compound 22, 6-methoxy-2-(4-methylpyridin-3-yl)-3-(4-methylthiazol-5-yl)-1H-inden-1-one], for which the EC50 in experiment [1] (setting [2]) is 20 to 100 µM; on Aβ1-42 (setting [3]), over 250 µM.

On to `Cc1scnc1C1=C(c2cccnc2)C(=O)c2cc(OCCCc3ccncc3)ccc21` [Compound 23, 3-(5-methylthiazol-4-yl)-2-(pyridin-3-yl)-6-(3-(pyridin-4-yl)propoxy)-1H-inden-1-one], for which the half-maximal effective concentration (EC50) (in experiment [1] (setting [2]); at Aβ1-42 (setting [3])) was under 20 µM throughout. Further, the “disaggregation effect for tau protein aggregates” value in experiment [1] (setting [4]) is on record as “remarkably excellent disaggregation effect”. Moreover, the “disaggregation effect for amyloid-beta protein aggregates” value on Aβ1-42 (setting [4]) is on record as “remarkably excellent disaggregation effect”.

As for `Cc1scnc1C1=C(c2cccnc2)C(=O)c2cc(O)ccc21` [Compound 23-10, 6-hydroxy-3-(5-methylthiazol-4-yl)-2-(pyridin-3-yl)-1H-inden-1-one], the concentration for a half-maximal effect (EC50) in experiment [1] (setting [2]) was 20 to 100 µM; on Aβ1-42 (setting [3]) it was over 250 µM.

In the case of `CC(=O)Oc1ccc2c(c1)C(=O)C(Br)=C2c1ccn(C)n1` [Compound 24, 2-bromo-3-(1-methyl-1H-pyrazol-3-yl)-1-oxo-1H-inden-6-yl acetate], the EC50 in experiment [1] (setting [2]) was under 20 µM; on Aβ1-42 (setting [3]), over 250 µM.

Take `Cc1ncsc1C1=C(c2cc[nH]n2)C(=O)c2cc(OCCCc3ccccc3)ccc21` [Compound 25, 3-(4-methylthiazol-5-yl)-6-(3-phenylpropoxy)-2-(1H-pyrazol-3-yl)-1H-inden-1-one]: the EC50 in experiment [1] (setting [2]) is over 250 µM; on Aβ1-42 (setting [3]), under 20 µM.

With `Cc1ncsc1C1=C(c2ccn(C)n2)C(=O)c2cc(OCCCc3ccccc3)ccc21` [Compound 26, 2-(1-methyl-1H-pyrazol-3-yl)-3-(4-methylthiazol-5-yl)-6-(3-phenylpropoxy)-1H-inden-1-one], the EC50 was over 250 µM in experiment [1] (setting [2]) and under 20 µM on Aβ1-42 (setting [3]).

On to `Cc1ncsc1C1=C(c2cn[nH]c2)C(=O)c2cc(OCCCc3ccccc3)ccc21` [Compound 27, 3-(4-methylthiazol-5-yl)-6-(3-phenylpropoxy)-2-(1H-pyrazol-4-yl)-1H-inden-1-one], for which the EC50 (in experiment [1] (setting [2]); at Aβ1-42 (setting [3])) was under 20 µM in each case. In experiment [1] (setting [4]), the “disaggregation effect for tau protein aggregates” value is “remarkably excellent disaggregation effect”. In addition, the “disaggregation effect for amyloid-beta protein aggregates” value at Aβ1-42 (setting [4]) is listed as “remarkably excellent disaggregation effect”.

What is called EC50 is the concentration giving half of the maximal effect.
